Experimental data reported in publication PMC6107127, “Characteristics of the mitochondrial and cellular uptake of MPP^+, as probed by the fluorescent mimic, 4'I-MPP^+” (PLoS ONE, 2018).

How the values were obtained:
HepG2 cells [1] = conditions: 5 μM FCCP 30 min, then 50 μM toxin 45 min; in comparison to MN9D cells
Description: (§1) Cells grown in 12-well plates were washed and incubated with 5 μM FCCP in KRB-HEPES for 30 min followed by 50 μM MPP^+ or 4'I-MPP^+ in the same buffer for 45 min at 37 °C. After the incubations, cells were washed with ice-cold KRB-HEPES and treated with 0.1 M HClO4. The intracellular MPP^+ or 4'I-MPP^+ contents of HClO4 extracts were quantified by HPLC-UV as detailed above. The controls were treated under the same conditions except that FCCP was omitted from the initial incubation. All uptake data were normalized to the respective protein concentration of each sample. To visualize the effect of FCCP on the mitochondrial accumulation of 4'I-MPP^+, cells were grown in glass bottomed plates and incubated with 5 μM FCCP in KRB-HEPES for 30 min followed by 100 μM 4'I-MPP^+ for 1 h at 37 °C. Then cells were washed and reconstituted with 1 mL of KRB-HEPES and the intracellular 4'I-MPP^+ fluorescence (Ex/Em 340/470-550 nm) were recorded.

MN9D cells [2] = conditions: 5 μM FCCP 30 min, then 50 μM toxin 45 min
Description: as §1

MN9D cells [3] = assay: Protection of MN9D cells from MPP+ and 4'I-MPP+ toxicities (MTT); format: cell-based, mouse; conditions: 0–50 μM CGP37157 30 min, then 80 μM MPP+ or 25 μM 4'I-MPP+ for 8 h
Description: Cell viability was determined by the MTT [3-(4,5-dimethylthiazol-2-yl)-2,5-diphenyltetrazolium bromide)] assay. Briefly, cells were seeded on 96-well plates and allowed to grow to about 70–80% confluence. Prior to the experiment, culture media was replaced with KRB-HCO3^- containing desired concentrations of MPP^+ or 4'I-MPP^+ and incubated for 16 h at 37 °C. After the incubation, 10 μL of 5 mg/mL MTT solution was added to each well and incubated for 2 h at 37 °C. The resulting formazan was solubilized by the addition of 210 μL detergent solution [50% DMF/H2O (v/v), 20% SDS (w/v)] followed by incubation at 37 °C for 12 h. The cell viabilities were determined by quantifying solubilized formazan by measuring the difference in the absorbance at 570 nm and 650 nm. Results were expressed as % viability of MPP^+ or 4'I-MPP^+ treated cells with respect to control cells, which were treated under the same conditions except in the absence of the MPP^+ or 4'I-MPP^+.
Fig 7 CGP37157 protect MN9D cells from MPP^+ and 4'I-MPP^+ toxicities. Cells were pre-incubated with 0–50 μM CGP37157 for 30 min followed by 80 μM MPP^+ or 25 μM 4'I-MPP^+ for 8 h. The relative cell viabilities were determiner using MTT assay, as detailed above. Data are presented as mean ± SD (n = 6). ٭p<0.0001 and #p<0.005 versus no CGP37157 controls.

HepG2 cells [4] = assay: Effect of CGP37157 and KBR7943 on 4'I-MPP+-mediated mitochondrial membrane depolarization (TMRM); format: cell-based, human
Description: HepG2 cells grown in glass-bottomed plates for two days were treated with 50 μM CGP37157 or KBR7943 in KRB-HEPES for 30 min followed by 50 nM TMRM in KRB-HEPES for 45 min. Then plates were mounted on the stage of the microscope and mitochondrial membrane depolarization upon the treatment with 100 μM 4'I-MPP^+ was measured as a function of time as detailed above. The effect of CGP37157 on the 4'I-MPP^+ mediated mitochondrial membrane depolarization at longer time periods was monitored by observing the reduction of TMRM fluorescence from 0 to 4 h incubations in the presence or absence of CGP37157. HepG2 cells were incubated with or without 10 μM CGP37157 followed by 50 nM TMRM, and finally with 4'I-MPP^+ (100 μM, 0 or 4 h) and the intracellular TMRM fluorescence was recorded. Controls were carried out using an identical protocol except that either CGP37157 or 4'I-MPP^+ were omitted from the incubation media.

[5] = test system: isolated intact MN9D mitochondria; assay: Effects of Ca2+ and inhibitors on MN9D mitochondrial uptake of 4'I-MPP+; parameters: species or system mouse; conditions: for 4'I-MPP+ uptake inhibition: 200 μM 4'I-MPP+
Description: Intact MN9D cell mitochondria were incubated with 200 μM 4'I-MPP^+ for 45 min at 37 °C in 0, 500 or 1000 nM Ca^2+ containing KCl buffer. When mNCX inhibitors (KBR7943, 2APB and CGP37157) were used, mitochondrial suspensions were initially incubated with 10, 25 or 50 μM inhibitor in KCl buffer for 10 min at 37 °C and then with 200 μM 4'I- MPP^+ for 45 min at 37 °C. After the incubations, samples were centrifuged at 7,000 x g at 4 °C for 10 min and the mitochondrial pellets were treated with 75 μL of 0.1 M HClO4. […] To visualize the effect of CGP37157 on the mitochondrial uptake of 4'I-MPP^+ in live cells, HepG2 cells grown in glass-bottomed plates were incubated with 50 μM CGP37157 for 30 min initially and then with 100 μM 4'I-MPP^+ and 200 nM MitoTracker Green FM in KRB-HEPES for 1 h at 37 °C. After incubation cells were washed and reconstituted with KRB-HEPES, pH 7.4 and 4'I-MPP^+ and MitoTracker Green FM fluorescence images of cells were recorded as detailed above. Controls were treated under the same experimental conditions, except that CGP37157 was omitted from the initial incubation.
S4 Fig. Effects of Benzamil, Verapamil, FFA, and ruthenium red on the MN9D mitochondrial uptake of 4'I-MPP+. MN9D mitochondrial suspensions were initially incubated with a 50 μM concentration of the desired agent (10 μM Ruthenium red) in KCl buffer for 10 min at 37 °C and then incubated with 200 μM 4'I-MPP+ for 45 min at 37 °C. After the incubations, the […] 4'I-MPP+ contents were quantified by RP-HPLC-UV as described in Material and methods. The data are represented as mean ± S.D (n=3).
(also on this page, place not known: contol 10uM Ru red BenzamilVerapamil FFA 4I' MPP+ uptake (nmoles/mg) 0.0 0.1 0.2 0.3 0.4 0.5)
(1 picture or pasted object on this page, not shown here)

| Compound | effect on cellular accumulation of MPP+ and 4'I-MPP+ (HepG2 cells [1]) | effect on cellular accumulation of MPP+ and 4'I-MPP+ (MN9D cells [2]) | protection from MPP+ and 4'I-MPP+ toxicities (MN9D cells [3]) | effect on 4'I-MPP+-induced mitochondrial membrane depolarization, longer incubation (HepG2 cells [4]; 10 μM CGP37157, 100 μM 4'I-MPP+, lasting at least 4 h) | effect on 4'I-MPP+ mitochondrial membrane depolarization (HepG2 cells [4]; 50 μM pre-treatment 30 min, 100 μM 4'I-MPP+) | 4'I-MPP+ uptake inhibition ([5]; 10 μM inhibitor) | 4'I-MPP+ uptake inhibition ([5]; 25 μM inhibitor) | effect on uptake of 4'I-MPP+ ([5]; 50 μM inhibitor at 200 μM 4'I-MPP+) |
| --- | --- | --- | --- | --- | --- | --- | --- | --- |
| N#CC(C#N)=NNc1ccc(OC(F)(F)F)cc1 [FCCP, carbonyl cyanide-p-trifluoromethoxyphenylhydrazone] | stronger effect | significantly decreased |  |  |  |  |  |  |
| O=C1CSC(c2ccccc2Cl)c2cc(Cl)ccc2N1 (centres unmarked) [CGP37157] |  |  | effectively protects | slows down | significantly reduced | about 40% | ~ 45% | inhibit the uptake |
